Results on twelve molecules are retold here after patent publication US20260217767A1, “NOVEL A4B7 THIOETHER PEPTIDE DIMER ANTAGONISTS” (Protagonist Therapeutics, Inc., priority 2014, published 2026).

Where two headings read alike, the source gives them in different places. Where a SMILES comes first, the peptide text is derived from it.

For this experiment, the target named is T1, RPMI 8866 cells (Homo sapiens, UniProt P13612+P26010).
T1 sequence (P13612 34-1032): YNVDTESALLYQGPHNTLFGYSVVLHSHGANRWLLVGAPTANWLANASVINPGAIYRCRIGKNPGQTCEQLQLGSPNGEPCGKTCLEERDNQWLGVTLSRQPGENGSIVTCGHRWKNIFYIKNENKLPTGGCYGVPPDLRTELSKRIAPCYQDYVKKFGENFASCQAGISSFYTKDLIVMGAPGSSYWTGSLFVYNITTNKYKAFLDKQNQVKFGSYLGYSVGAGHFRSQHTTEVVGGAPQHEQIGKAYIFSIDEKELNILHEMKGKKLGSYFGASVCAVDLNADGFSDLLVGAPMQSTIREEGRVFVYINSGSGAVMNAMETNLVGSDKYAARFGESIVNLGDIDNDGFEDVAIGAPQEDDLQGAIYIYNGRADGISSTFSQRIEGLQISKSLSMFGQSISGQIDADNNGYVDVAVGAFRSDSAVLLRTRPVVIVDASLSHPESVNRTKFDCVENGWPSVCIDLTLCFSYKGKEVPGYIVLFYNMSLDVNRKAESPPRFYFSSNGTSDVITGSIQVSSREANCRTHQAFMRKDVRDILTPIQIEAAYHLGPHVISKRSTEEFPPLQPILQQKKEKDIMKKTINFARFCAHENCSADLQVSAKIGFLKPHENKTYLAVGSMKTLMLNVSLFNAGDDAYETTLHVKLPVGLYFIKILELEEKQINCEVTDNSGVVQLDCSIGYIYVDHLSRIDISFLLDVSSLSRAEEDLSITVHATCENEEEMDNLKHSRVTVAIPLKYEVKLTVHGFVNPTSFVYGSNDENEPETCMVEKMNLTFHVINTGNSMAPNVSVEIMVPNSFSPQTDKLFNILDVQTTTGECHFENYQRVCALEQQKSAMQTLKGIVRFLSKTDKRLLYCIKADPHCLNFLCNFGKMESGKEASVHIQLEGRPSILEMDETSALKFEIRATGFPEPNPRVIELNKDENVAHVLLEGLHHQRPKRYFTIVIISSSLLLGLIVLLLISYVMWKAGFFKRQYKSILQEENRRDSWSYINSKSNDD
T1 sequence (P26010 20-798): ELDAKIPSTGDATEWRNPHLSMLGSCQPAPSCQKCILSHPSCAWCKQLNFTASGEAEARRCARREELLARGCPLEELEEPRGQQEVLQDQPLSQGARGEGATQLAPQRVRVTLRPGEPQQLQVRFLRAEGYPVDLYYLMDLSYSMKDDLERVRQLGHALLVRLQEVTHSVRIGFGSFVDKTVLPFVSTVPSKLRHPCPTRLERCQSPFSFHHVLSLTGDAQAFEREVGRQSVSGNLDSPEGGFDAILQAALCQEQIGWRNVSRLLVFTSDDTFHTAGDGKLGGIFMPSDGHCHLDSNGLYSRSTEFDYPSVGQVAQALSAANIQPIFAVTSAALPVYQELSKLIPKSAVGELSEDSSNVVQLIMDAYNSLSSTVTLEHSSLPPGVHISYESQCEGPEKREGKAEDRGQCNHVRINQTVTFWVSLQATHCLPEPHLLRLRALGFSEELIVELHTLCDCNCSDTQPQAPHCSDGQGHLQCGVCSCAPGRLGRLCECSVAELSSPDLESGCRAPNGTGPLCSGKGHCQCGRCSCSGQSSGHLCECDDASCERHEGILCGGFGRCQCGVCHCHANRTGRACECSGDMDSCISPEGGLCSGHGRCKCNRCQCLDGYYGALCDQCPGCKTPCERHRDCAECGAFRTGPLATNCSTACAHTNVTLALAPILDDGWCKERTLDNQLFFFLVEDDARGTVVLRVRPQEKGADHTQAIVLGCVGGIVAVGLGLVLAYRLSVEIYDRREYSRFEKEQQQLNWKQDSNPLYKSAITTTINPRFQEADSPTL
Nature of the experiment: α4β7-MAdCAM Cell Adhesion Assay. It counts as cell-based. The following applies: read-out: Cell-Adhesion A4B7. The procedure, abridged: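 RPMI 8866 cells (200,000/well) in DMEM with 1 mM MnCl2 and 0.1% BSA were allowed to adhere 30-45 min at 37° C to plates coated with rh MAdCAM-1/Fc (200 ng/well) in presence of serially diluted peptide. After washing, bound cells quantified by MTT, absorbance 570 nm, cell-free background subtracted.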

The mark [1] stands for this setting: thioether monomer peptides, Table 6.

Take `CC(C)C[C@@H]1NC(=O)[C@H]([C@@H](C)O)NC(=O)[C@H](CC(=O)O)NC(=O)[C@H](CO)NC(=O)[C@H](CCCNC(=N)N)N(C)C(=O)C(C)SC[C@@H](C(=O)N[C@@H](Cc2c[nH]c3ccccc23)C(=O)N[C@H](CCCCN)C(N)=O)NC1=O` (single isomer, unassigned) [compound 144]: the IC50 (thioether peptide dimers, Table 7) was > 1000 nM.
As to `CC(C)C[C@@H]1NC(=O)[C@H]([C@@H](C)O)NC(=O)[C@H](CC(=O)O)NC(=O)[C@H](CO)NC(=O)[C@H](CCCNC(=N)N)N(C)C(=O)c2ccccc2CSC[C@@H](C(=O)N[C@@H](Cc2c[nH]c3ccccc23)C(=O)N[C@@H](CCC(=O)O)C(=O)N[C@H](CCCCN)C(N)=O)NC1=O` [compound 55] (HELM PEPTIDE1{[meR].S.D.T.L.C.W.E.[dK].[am]}|CHEM1{[O=C(c1ccccc1C[*:2])[*:1]]}$PEPTIDE1,CHEM1,1:R1-1:R1|PEPTIDE1,CHEM1,6:R3-1:R2$$$V2.0), the IC50 under setting [1] lay in the range of 100 to 1000 nM.
Still for that read-out and setting: the same measure for `CC(C)C[C@@H]1NC(=O)[C@H]([C@@H](C)O)NC(=O)[C@H](CC(=O)O)NC(=O)[C@H](CO)NC(=O)[C@H](CCCNC(=N)N)N(C)C(=O)c2ccccc2CSC(C)(C)[C@@H](C(=O)N[C@@H](Cc2cccc3ccccc23)C(=O)N[C@H](CCC(=O)O)C(=O)N(C)[C@@H](CCCCN)C(N)=O)NC1=O` [compound 69] (HELM PEPTIDE1{[meR].S.D.T.L.[Pen].[O=C([C@H](Cc1cccc2ccccc12)N[*:1])[*:2]].[dE].[meK].[am]}|CHEM1{[O=C(c1ccccc1C[*:2])[*:1]]}$PEPTIDE1,CHEM1,1:R1-1:R1|PEPTIDE1,CHEM1,6:R3-1:R2$$$V2.0): 100 to 1000 nM; for `CC(=O)NCCCC[C@@H](NC(=O)[C@H](CCC(=O)O)NC(=O)[C@H](Cc1c[nH]c2ccccc12)NC(=O)[C@H]1NC(=O)[C@H](CC(C)C)NC(=O)[C@H]([C@@H](C)O)NC(=O)[C@H](CC(=O)O)NC(=O)[C@H](CO)NC(=O)[C@H](CCCNC(=N)N)N(C)C(=O)c2ccccc2CSC1(C)C)C(N)=O` [compound 80] (HELM PEPTIDE1{[meR].S.D.T.L.[Pen].W.E.[dK].[am]}|PEPTIDE2{[ac]}|CHEM1{[O=C(c1ccccc1C[*:2])[*:1]]}$PEPTIDE1,PEPTIDE2,9:R3-1:R2|PEPTIDE1,CHEM1,1:R1-1:R1|PEPTIDE1,CHEM1,6:R3-1:R2$$$V2.0): 25 to 100 nM.
In the case of `CC(=O)NCCCC[C@@H](NC(=O)[C@@H](CCC(=O)O)NC(=O)[C@H](Cc1c[nH]c2ccccc12)NC(=O)[C@H]1NC(=O)[C@H](CC(C)C)NC(=O)[C@H]([C@@H](C)O)NC(=O)[C@H](CC(=O)O)NC(=O)[C@H](CO)NC(=O)[C@H](CCCNC(=N)N)N(C)C(=O)c2ccccc2CSC1(C)C)C(N)=O` [compound 81] (HELM PEPTIDE1{[meR].S.D.T.L.[Pen].W.[dE].[dK].[am]}|PEPTIDE2{[ac]}|CHEM1{[O=C(c1ccccc1C[*:2])[*:1]]}$PEPTIDE1,PEPTIDE2,9:R3-1:R2|PEPTIDE1,CHEM1,1:R1-1:R1|PEPTIDE1,CHEM1,6:R3-1:R2$$$V2.0), the IC50 under setting [1] was in the range of 25 to 100 nM.
On the same count and under the same terms, the same measure for `CC(=O)NCCCC[C@@H](NC(=O)[C@H](CCC(=O)O)NC(=O)[C@H](Cc1cccc2ccccc12)NC(=O)[C@H]1NC(=O)[C@H](CC(C)C)NC(=O)[C@H]([C@@H](C)O)NC(=O)[C@H](CC(=O)O)NC(=O)[C@H](CO)NC(=O)[C@H](CCCNC(=N)N)N(C)C(=O)c2ccccc2CSC1(C)C)C(N)=O` [compound 89] (HELM PEPTIDE1{[meR].S.D.T.L.[Pen].[O=C([C@H](Cc1cccc2ccccc12)N[*:1])[*:2]].E.[dK].[am]}|PEPTIDE2{[ac]}|CHEM1{[O=C(c1ccccc1C[*:2])[*:1]]}$PEPTIDE1,PEPTIDE2,9:R3-1:R2|PEPTIDE1,CHEM1,1:R1-1:R1|PEPTIDE1,CHEM1,6:R3-1:R2$$$V2.0): 100 to 1000 nM; for `CC(=O)NCCCC[C@@H](NC(=O)[C@@H](CCC(=O)O)NC(=O)[C@H](Cc1ccc(O)cc1)NC(=O)[C@H]1NC(=O)[C@H](CC(C)C)NC(=O)[C@H]([C@@H](C)O)NC(=O)[C@H](CC(=O)O)NC(=O)[C@H](CO)NC(=O)[C@H](CCCNC(=N)N)N(C)C(=O)c2ccccc2CSC1(C)C)C(N)=O` [compound 91] (HELM PEPTIDE1{[meR].S.D.T.L.[Pen].Y.[dE].[dK].[am]}|PEPTIDE2{[ac]}|CHEM1{[O=C(c1ccccc1C[*:2])[*:1]]}$PEPTIDE1,PEPTIDE2,9:R3-1:R2|PEPTIDE1,CHEM1,1:R1-1:R1|PEPTIDE1,CHEM1,6:R3-1:R2$$$V2.0): 100 to 1000 nM.
Same read-out and setting: to `CC(C)C[C@@H]1NC(=O)[C@H]([C@@H](C)O)NC(=O)[C@H](CC(=O)O)NC(=O)[C@H](CO)NC(=O)[C@H](CCCNC(=N)N)N(C)C(=O)c2ccccc2CSC(C)(C)[C@@H](C(=O)N[C@@H](Cc2c[nH]c3ccccc23)C(=O)N[C@@H](CCC(=O)O)C(=O)N[C@@H](CN)C(N)=O)NC1=O` [compound 92] (HELM PEPTIDE1{[meR].S.D.T.L.[Pen].W.E.[NC[C@H](N[*:1])C(=O)[*:2]].[am]}|CHEM1{[O=C(c1ccccc1C[*:2])[*:1]]}$PEPTIDE1,CHEM1,1:R1-1:R1|PEPTIDE1,CHEM1,6:R3-1:R2$$$V2.0) belongs 25 to 100 nM; to `CC(C)C[C@@H]1NC(=O)[C@H]([C@@H](C)O)NC(=O)[C@H](CC(=O)O)NC(=O)[C@H](CO)NC(=O)[C@H](CCCNC(=N)N)N(C)C(=O)c2ccccc2CSC(C)(C)[C@@H](C(=O)N[C@@H](Cc2c[nH]c3ccccc23)C(=O)N[C@@H](CCC(=O)O)C(=O)N[C@@H](CCN)C(N)=O)NC1=O` [compound 93] (HELM PEPTIDE1{[meR].S.D.T.L.[Pen].W.E.[Dab].[am]}|CHEM1{[O=C(c1ccccc1C[*:2])[*:1]]}$PEPTIDE1,CHEM1,1:R1-1:R1|PEPTIDE1,CHEM1,6:R3-1:R2$$$V2.0), 25 to 100 nM.
For `CC(C)C[C@@H]1NC(=O)[C@H]([C@@H](C)O)NC(=O)[C@H](CC(=O)O)NC(=O)[C@H](CO)NC(=O)[C@H](CCCNC(=N)N)N(C)C(=O)c2ccccc2CSC(C)(C)[C@@H](C(=O)N[C@@H](Cc2c[nH]c3ccccc23)C(=O)N[C@H](CCC(=O)O)C(=O)N[C@@H](CN)C(N)=O)NC1=O` [compound 94] (HELM PEPTIDE1{[meR].S.D.T.L.[Pen].W.[dE].[NC[C@H](N[*:1])C(=O)[*:2]].[am]}|CHEM1{[O=C(c1ccccc1C[*:2])[*:1]]}$PEPTIDE1,CHEM1,1:R1-1:R1|PEPTIDE1,CHEM1,6:R3-1:R2$$$V2.0), the IC50 under setting [1] lay in the range of 100 to 1000 nM.
The same measure, in the same setting: the same measure for `CC(C)C[C@@H]1NC(=O)[C@H]([C@@H](C)O)NC(=O)[C@H](CC(=O)O)NC(=O)[C@H](CO)NC(=O)[C@H](CCCNC(=N)N)N(C)C(=O)c2ccccc2CSC(C)(C)[C@@H](C(=O)N[C@@H](Cc2c[nH]c3ccccc23)C(=O)N[C@H](CCC(=O)O)C(=O)N[C@@H](CCN)C(N)=O)NC1=O` [compound 95] (HELM PEPTIDE1{[meR].S.D.T.L.[Pen].W.[dE].[Dab].[am]}|CHEM1{[O=C(c1ccccc1C[*:2])[*:1]]}$PEPTIDE1,CHEM1,1:R1-1:R1|PEPTIDE1,CHEM1,6:R3-1:R2$$$V2.0): 100 to 1000 nM.
For `CC(C)C[C@@H]1NC(=O)[C@H]([C@@H](C)O)NC(=O)[C@H](CC(=O)O)NC(=O)[C@H](CO)NC(=O)[C@H](CCCNC(=N)N)N(C)C(=O)c2ccccc2CSC(C)(C)[C@@H](C(=O)N[C@@H](Cc2c[nH]c3ccccc23)C(=O)N[C@@H](CCC(=O)O)C(N)=O)NC1=O` [compound 96] (HELM PEPTIDE1{[meR].S.D.T.L.[Pen].W.E.[am]}|CHEM1{[O=C(c1ccccc1C[*:2])[*:1]]}$PEPTIDE1,CHEM1,1:R1-1:R1|PEPTIDE1,CHEM1,6:R3-1:R2$$$V2.0), the IC50 under setting [1] fell in the range of 100 to 1000 nM.
